Measured values from ChEMBL document CHEMBL1149009, “Antitumor agents, 79. Cytotoxic antileukemic alkaloids from Brucea antidysenterica” (1986).
In brackets after ≈: the same amount, converted by molar mass. Activity calls are given as the source filed them. The rule behind the calls is not given here.

Key:
Format in all cases: functional
[1] = tested on: P388; assay: In vivo antitumor activity against mouse P388 cells at 200 mg/kg after 1 day
[2] = tested on: KB; assay: Cytotoxicity against human KB cells; details: for EC50: read-out: ED50 (the source's name)
[3] = tested on: P388; assay: In vivo antitumor activity against mouse P388 cells at 25 mg/kg after 3 days

For `O=c1[nH]cc(F)c(=O)[nH]1` [FLUOROURACIL], the T/C [1] was 135%.
For `O=c1ccc2nccc3c4c(O)cccc4n1c23`, the EC50 [2] was at most 4 µg/mL.
`O=c1ccc2nccc3c4ccccc4n1c23` was tested, and the Activity [2] was “inactive”.
`COc1cccc2c1c1c(OC)cnc3ccc(=O)n2c31` gave a T/C [3] of 122% and an EC50 [2] of 1 µg/mL (≈ 3.57 µM).
